According to patent US10759803B2, “Asparagine endopeptidase (AEP) inhibitors for managing cancer and compositions related thereto” (priority 2014, dated 2020):

Legend:
AEP [1] = target: T1, AEP (Homo sapiens, UniProt Q99538); assay: Inhibition kinetics assays (steady-state, Z-AAN-AMC); format: biochemical; details: competitive inhibition
T1 construct: tested with purified active AEP, IC50 values for the top 8 candidates were found
T1 sequence (Q99538 18-323 limits assumed): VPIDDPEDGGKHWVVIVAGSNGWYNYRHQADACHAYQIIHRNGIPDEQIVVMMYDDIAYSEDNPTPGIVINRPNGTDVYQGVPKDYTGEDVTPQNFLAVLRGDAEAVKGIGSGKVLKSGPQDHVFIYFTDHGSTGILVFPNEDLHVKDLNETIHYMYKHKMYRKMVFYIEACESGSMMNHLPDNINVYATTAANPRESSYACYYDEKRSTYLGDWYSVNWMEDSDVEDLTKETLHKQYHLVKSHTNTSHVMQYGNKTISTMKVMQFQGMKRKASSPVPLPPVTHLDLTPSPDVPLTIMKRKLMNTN
Description: (§1) KI values for each inhibitor were determined by global fits to the competitive inhibition equation. C. Time course inactivation assays were used to generate progress curves, depicting product formation as a function of time. […] E. Time course inactivation assays were used to generate progress curves, depicting product formation as a function of time. Pseudo first-order rate constants were obtained at each concentration of compound BB1. F. Re-plot of the pseudo first-order rate constants, kobs, vs. the concentration of compound BB1.
(§2) A. Michaelis-Menten plots displaying competitive inhibition of AEP. The inhibition constant, K1, was determined from the globally fit data. B. Double reciprocal Lineweaver-Burk plots also displaying competitive inhibition. C. […] DC. A plot of the corrected kobs values obtained from each curve in (B) versus the concentration of compound 38, which enabled the calculation of the second-order rate constant, kinact/KI to be determined to measure the potency of the inhibitor.
To determine the inhibition constants and the mechanism by which compound 38 inhibits AEP, the steady-state kinetic parameters for the hydrolysis of the peptide substrate, Z-AAN-AMC, were determined in the absence or presence of increasing concentrations of inhibitor. In these assays, specified concentrations of the inhibitor were pre-incubated with substrate for 10 min at 37° C., then 50 nM AEP was added to initiate the reaction, which was quenched after 10 min. […]
In the equations, Kii is the intercept Ki, and Kis is the slope Ki. The mode of the inhibition induced by the compounds on AEP was determined by the best fit of the data to equations 1-4. […]

AEP [2] = target: T1, AEP; assay: Time course inactivation assays; format: biochemical
Description: as §1, §2
Progress curves were generated by incubating 5 μM Z-AAN-AMC and the specified concentration of inhibitor in assay buffer at 37° C. for 10 min. The reaction was initiated by the addition of 50 nM AEP and quenched after 10 min. The concentration of the product was determined from an AMC standard curve and the data was fit by nonlinear regression. Since the curves were nonlinear, they were fit to equation 5, using the GraFit version 5.0.11 software package, [Product]=vi(1−e^−kobs.app*t)/kobs.app (eq 5), where vi is the initial velocity, kobs.app is the apparent pseudo-first order rate constant for inactivation, and t is time. Equation 6, kobs=[…] (eq 6), was used to correct the apparent pseudo-first-order inactivation rate constants, obtained from this analysis, for substrate concentration and the pseudo-first-order inactivation rate constants, i.e. kobs, thus obtained, were plotted against the tested inhibitor concentrations. […]

[3] = target: T2, endogenous AEP in human B lymphoblastoid pala cells (Homo sapiens, UniProt Q99538); assay: AEP inhibition in intact Pala cells; format: cell-based; details: 2 hrs incubation, residual enzymatic activity in lysate
T2 construct: human B lymphoblastoid pala cells, which are rich in endogenous AEP; endogenous in cells; host or cells: human B lymphoblastoid Pala cells
T2 sequence (Q99538 18-323): T1 sequence (Q99538 18-323 limits assumed)
Description: The cells were incubated with inhibitors for 2 hrs then cells washed, harvested and lysed and the residual enzymatic activity was determined. Lysate was normalized by Bradford assay and the experiment was performed in triplicate and the mean results and SEM were plotted.
In an attempt to assess the activity of the compounds in intact cells, the compounds were incubated with human B lymphoblastoid pala cells, which are rich in endogenous AEP and have been used for inhibiting AEP in cellular assay.

Cathepsin-L = Cathepsin-L (Homo sapiens, UniProt P07711); assay: Specificity assay against Cathepsin-L; format: biochemical
Cathepsin-L, sequence (P07711 114-333, species assumed): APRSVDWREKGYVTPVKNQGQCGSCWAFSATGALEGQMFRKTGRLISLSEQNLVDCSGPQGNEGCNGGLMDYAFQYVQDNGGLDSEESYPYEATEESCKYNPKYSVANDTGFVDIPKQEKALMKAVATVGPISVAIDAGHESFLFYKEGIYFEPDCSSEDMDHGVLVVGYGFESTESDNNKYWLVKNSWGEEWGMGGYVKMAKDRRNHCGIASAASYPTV

AEP [4] = target: T1, AEP; assay: IC50 assay with purified recombinant AEP; format: biochemical; details: purified active AEP; read-out: IC50 toward AEP
Description: Purified recombinant enzyme was incubated with various concentrations of inhibitor in appropriate assay buffers in the presence of increasing concentrations of inhibitor. The formation of fluorescent product was monitored in duplicate reactions and the data was fit to appropriate equations to calculate the IC50 values.
To identify small-molecule inhibitors of AEP, a high-throughput screen was designed in conjunction with the Emory Chemical Biology Discovery Center. The screen incorporated mouse kidney lysates to assay a 54,384 compound library. […] Additional structural analysis and grouping allowed the compounds to be sorted into 8 distinct backbone families. […] The specificity of the compounds was also determined using four major cysteine proteases (FIG. 2).
Various concentrations of the appropriate compound were incubated with AEP reaction buffer (50 mM Sodium Citrate pH 5.5, 0.1% CHAPS, 60 mM Na2HPO4, 1 mM EDTA, final pH 6.0) and peptide substrate, 10 μM Cbz-Ala-Ala-Asn-AMC (Bachem). The reaction was initiated upon addition of 50 nM AEP and fluorescent product formation was monitored over 15 min. […] Data were analyzed with GraFit version 5.0.11 software package.

AEP [5] = target: T1, AEP; assay: DTT / L-cysteine reversibility of AEP inhibition; format: biochemical; details: 10 mM DTT or L-cysteine added after 15 min
Description: AEP was reacted with specified inhibitor, after 15 min 10 mM DTT or L-cysteine was added to the reaction and the fluorescent signal was read for an additional 15 min. At the end of the second 15 min incubation, the percentage of product formed in the presence of each compound was determined in comparison to the DMSO control reaction.
Although it is not intended that embodiments of this disclosure be limited by any particular mechanism, to gain additional insight into the mechanism utilized by the inhibitors for abrogation of AEP activity, their reversibility in the presence of free thiols was determined. The addition of a strong reducing agent, such as DTT, or a weaker reducing agent, L-cysteine, to an inhibited reaction can be used to out-compete the inhibitory agent and restore catalytic activity to an enzyme with an active-site thiol residue. Here, a similar approach was used by adding a reducing agent, either DTT or L-cysteine, to a reaction, in which AEP had been incubated with a specified inhibitor, in an attempt to reverse the effects of the inhibitor. […] For compounds BB1 and 38, this increase in enzymatic activity may be due to the reduction of a disulfide linkage between the inhibitor and the enzyme, since these compounds contain thiols. Compound 10 contains a thiocyanate and may undergoes nucleophilic attack by the enzyme's active-site thiolate to form a thioimidate enzyme-inhibitor complex. Under acidic conditions, this complex is reducible by either a strong reducing agent, such as DTT, or the weaker L-cysteine.

inhibition constants in words (AEP [1]): nanomolar-range
second-order rate constant, kinact/KI (AEP [2]): 55000 M⁻¹ s⁻¹
IC50 in intact Pala cells [3]: slightly larger IC50 values
selectivity for AEP over Cathepsin-L (Cathepsin-L): about 38 fold
IC50 (AEP [4]): ~130 nM
SMILES: Sc1nnc(Nc2ccccc2)s1 [Compound BB1]
AEP activity after addition of reducing agent (reversibility) (AEP [5]): regained a substantial amount of activity
